Drawing on ChEMBL document CHEMBL1153711, “Synthesis and antimycobacterial evaluation of novel 5,6-dimethoxy-1-oxo-2,5-dihydro-1H-2-indenyl-5,4-substituted phenyl methanone analogues” (Bioorg Med Chem Lett, 2009), this text covers MIC for 13 molecules.

One may read the MIC as the lowest concentration that inhibits growth of the organism. A lower MIC goes with inhibition by little substance.

≈ marks a conversion by molar mass, not a printed value.

This test has as its system Mycobacterium tuberculosis. Kind of test: Antimycobacterial activity against isoniazid-resistant Mycobacterium tuberculosis by agar dilution method. The format is functional. A general note: In agar dilution, organisms are placed on agar that contains the substance at set levels.
Molecule `COc1cc2c(cc1OC)C(=O)C(C(=O)c1ccccc1)C2` (stereo not drawn) displayed an MIC of 11.6 µM (≈ 3.43 µg/mL).
Then `COc1cc2c(cc1OC)C(=O)C(C(=O)c1ccc(N(C)C)cc1)C2` (stereo not drawn), with 8.78 µM (≈ 2.98 µg/mL).
Then `COc1ccc(C(=O)C2Cc3cc(OC)c(OC)cc3C2=O)cc1OC` (stereo not drawn), with above 6.25 µM; and `COc1cc2c(cc1OC)C(=O)C(C(=O)c1ccccc1Cl)C2` (stereo not drawn), with 3.72 µM (≈ 1.23 µg/mL); and `COc1cc2c(cc1OC)C(=O)C(C(=O)c1ccc(Br)cc1)C2` (stereo not drawn), with 11.7 µM (≈ 4.41 µg/mL).
The result for `COc1cc2c(cc1OC)C(=O)C(C(=O)c1cccc([N+](=O)[O-])c1)C2` (stereo not drawn) reads 8.72 µM (≈ 2.98 µg/mL).
Molecule `COc1cc2c(cc1OC)C(=O)C(C(=O)c1ccc(C#N)cc1)C2` (stereo not drawn) came in with an MIC above 6.25 µM.
With `COc1cc2c(cc1OC)C(=O)C(C(=O)c1ccc(F)cc1)C2` (stereo not drawn), the minimum inhibitory concentration (MIC) stood at 0.1 µM (≈ 0.0314 µg/mL).
Molecule `COc1cc2c(cc1OC)C(=O)C(C(=O)c1ccc(Cl)cc1)C2` (stereo not drawn) showed an MIC of 8.2 µM (≈ 2.71 µg/mL).
`NNC(=O)c1ccncc1` [ISONIAZID]: the minimal inhibitory concentration (MIC) was determined as 11.6 µM (≈ 1.59 µg/mL).
The result for `COc1ccc(C(=O)C2Cc3cc(OC)c(OC)cc3C2=O)cc1` (stereo not drawn) reads above 6.25 µM; that for `COc1cc2c(cc1OC)C(=O)C(C(=O)c1cc(OC)c(OC)c(OC)c1)C2` (stereo not drawn), above 6.25 µM.
The result for `COc1cc2c(cc1OC)C(=O)C(C(=O)c1c(Cl)cccc1Cl)C2` (stereo not drawn) reads 4.96 µM (≈ 1.81 µg/mL).
